For experiment [1], the target named is Human Factor XIIa (Homo sapiens (Human), UniProt P00748). As to the kind of experiment: Determination of FXIIa inhibition (fluorogenic substrate H-DPro-Phe-Arg-AFC, IC50 assay). In kind it is biochemical. The following applies: substrate H-DPro-Phe-Arg-AFC at Km, 25° C.; class scale A-G. The essentials: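 Human FXIIa incubated at 25° C with fluorogenic substrate H-DPro-Phe-Arg-AFC at its Km concentration and varying compound concentrations. Fluorescence release monitored over 5 min at 25° C; linear rate expressed as % of uninhibited activity to derive IC50.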

Experiment [2] has as its target Plasma Kallikrein (Homo sapiens (Human), UniProt P03952). Briefly: Determination of related protease inhibition: Plasma Kallikrein (fluorogenic substrate at Km). In kind it is biochemical. Particulars: 25° C., read-out: IC50 (human PKal). The essentials: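 Human enzymes incubated with varied inhibitor concentrations and fluorogenic substrate at Km. Fluorescence release followed over 5 min at 25 °C; linear rate expressed as % activity, IC50 as inhibitor concentration giving 50% inhibition of uninhibited enzyme.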

We go through 23 compounds from patent US20240059691A1 (KALVISTA PHARMACEUTICALS LIMITED, priority 2020, published 2024).

Molecules are shown by their SMILES.

Sequence of Plasma Kallikrein (P03952 391-638): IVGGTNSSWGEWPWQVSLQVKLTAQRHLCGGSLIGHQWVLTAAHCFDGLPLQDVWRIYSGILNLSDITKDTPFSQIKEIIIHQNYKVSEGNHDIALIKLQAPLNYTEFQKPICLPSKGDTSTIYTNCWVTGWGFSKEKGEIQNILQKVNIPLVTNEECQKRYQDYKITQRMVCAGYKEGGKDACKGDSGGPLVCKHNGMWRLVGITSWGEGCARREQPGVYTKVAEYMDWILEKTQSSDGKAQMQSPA
Sequence of Plasma Kallikrein (P03952 20-390 partner): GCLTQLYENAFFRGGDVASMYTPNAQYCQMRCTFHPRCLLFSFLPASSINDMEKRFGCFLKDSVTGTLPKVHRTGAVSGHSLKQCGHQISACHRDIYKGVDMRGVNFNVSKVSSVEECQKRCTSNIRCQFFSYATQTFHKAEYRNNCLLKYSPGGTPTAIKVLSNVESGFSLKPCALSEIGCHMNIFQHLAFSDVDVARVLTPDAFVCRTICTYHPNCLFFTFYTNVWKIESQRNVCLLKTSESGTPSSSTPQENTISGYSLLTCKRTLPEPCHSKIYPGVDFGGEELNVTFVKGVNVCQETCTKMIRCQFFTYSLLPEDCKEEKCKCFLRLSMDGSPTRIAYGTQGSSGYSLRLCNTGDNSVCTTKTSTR
Sequence of Human Factor XIIa (P00748 373-615): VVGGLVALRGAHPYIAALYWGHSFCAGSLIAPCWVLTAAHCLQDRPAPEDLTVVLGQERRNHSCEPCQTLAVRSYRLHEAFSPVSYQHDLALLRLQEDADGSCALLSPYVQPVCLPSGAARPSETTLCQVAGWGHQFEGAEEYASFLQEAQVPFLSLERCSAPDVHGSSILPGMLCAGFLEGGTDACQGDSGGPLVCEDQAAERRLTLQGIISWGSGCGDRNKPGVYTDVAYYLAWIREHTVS

Usually IC50 stands for the point on the concentration scale where inhibition reaches its midpoint. On to `Nc1nccc2c(NCc3ccc(OC4CCn5ccnc5C4)nc3)cccc12` (stereo not shown) [Example 1049, N5-[[6-(5,6,7,8-tetrahydroimidazo[1,2-a]pyridin-7-yloxy)-3-pyridyl]methyl]isoquinoline-1,5-diamine], for which the IC50 is 0.3 to 1 µM in experiment [1] and more than 40 µM in experiment [2].

Take `Nc1nccc2c(CCc3ccnc(OCC4CCn5ccnc5C4)c3)cccc12` (stereo not shown) [Example 4452, 5-(2-(2-((5,6,7,8-tetrahydroimidazo[1,2-a]pyridin-7-yl)methoxy)pyridin-4-yl)ethyl)isoquinolin-1-amine]: the figures for the IC50 in experiment [1] and in experiment [2] were 0.3 to 1 µM and more than 40 µM, respectively.

Regarding `CN1CCC(CNc2ccc(CNc3cc(C(=O)O)nc4[nH]ccc34)cn2)CC1` [Example 1263, 4-(((6-(((1-methylpiperidin-4-yl)methyl)amino)pyridin-3-yl)methyl)amino)-1H-pyrrolo [2,3-b]pyridine-6-carboxylic acid], the IC50 in experiment [1] was 10 to 40 µM; in experiment [2], more than 40 µM.

With `Cc1c[nH]c2nccc(NCc3ccc(NCC4CCN(C)CC4)nc3)c12` [Example 1226, 3-methyl-N-((6-(((1-methylpiperidin-4-yl)methyl)amino)pyridin-3-yl)methyl)-1H-pyrrolo[2,3-b]pyridin-4-amine], the figures for the IC50 in experiment [1] and in experiment [2] were 3 to 10 µM and more than 100 µM, respectively.

On to `CNc1cc(NCc2ccc(N3CCn4c(nnc4C(F)F)C3)nc2)ccn1` [Example 1281, N4-((6-(3-(difluoromethyl)-5,6-dihydro-[1,2,4]triazolo[4,3-a]pyrazin-7(8H)-yl)pyridin-3-yl)methyl)-N2-methylpyridine-2,4-diamine], for which the IC50 in experiment [1] was 10 to 40 µM; in experiment [2], more than 40 µM.

Regarding `COC(=O)c1c[nH]c2nccc(NCc3ccc(NCC4CCN(C)CC4)nc3)c12` [Example 1248, methyl 4-(((6-(((1-methylpiperidin-4-yl)methyl)amino)pyridin-3-yl)methyl)amino)-1H-pyrrolo[2,3-b]pyridine-3-carboxylate], the IC50 in experiment [1] is 10 to 40 µM; in experiment [2] it was more than 20 µM.

In the case of `Cc1cnc2[nH]ccc2c1NCc1ccc(NCC2CCN(C)CC2)nc1` [Example 1205, 5-methyl-N-((6-(((1-methylpiperidin-4-yl)methyl)amino)pyridin-3-yl)methyl)-1H-pyrrolo[2,3-b]pyridin-4-amine], the values for the IC50 in experiment [1] and in experiment [2] were 10 to 40 µM and more than 100 µM, respectively.

For `CNC(=O)c1cc(NCc2ccnc(OCC3CCN(C)CC3)c2)cc2ccncc12` [Example 4463], the figures for the IC50 in experiment [1] and in experiment [2] were 40 to 100 µM and more than 100 µM, respectively.

Turning to `CN1CCC(CNc2ccc(CNc3nccc4[nH]ccc34)cn2)CC1` [Example 1223, N-((6-(((1-methylpiperidin-4-yl)methyl)amino)pyridin-3-yl)methyl)-1H-pyrrolo[3,2-c]pyridin-4-amine], the figures for the IC50 in experiment [1] and in experiment [2] were 40 to 100 µM and more than 40 µM, respectively.

In the case of `Nc1nccc2c(NCc3ccc(N4CCc5nccn5CC4)nc3)cccc12` [Example 1271, N5-((6-(5,6,8,9-tetrahydro-7H-imidazo[1,2-d][1,4]diazepin-7-yl)pyridin-3-yl)methyl)isoquinoline-1,5-diamine], the IC50 in experiment [1] was 0.3 to 1 µM; in experiment [2], 10 to 40 µM.

On to `CN1CCC(CNc2ccc(CNc3cc(F)c4cnccc4c3)cn2)CC1` [Example 1207, 8-fluoro-N-((6-(((1-methylpiperidin-4-yl)methyl)amino)pyridin-3-yl)methyl)isoquinolin-6-amine], for which the IC50 was 40 to 100 µM in experiment [1] and more than 100 µM in experiment [2].

As to `Nc1nccc2c(NCc3ccc(N4CCn5ncc(O)c5C4)nc3)cccc12` [Example 1312, 5-(5-(((1-aminoisoquinolin-5-yl)amino)methyl)pyridin-2-yl)-4,5,6,7-tetrahydropyrazolo[1,5-a]pyrazin-3-ol], the IC50 was 3 to 10 µM in experiment [1] and more than 40 µM in experiment [2].

Take `CN1CCC(CNc2ccc(CNc3cc(Cl)c4cnccc4c3)cn2)CC1` [Example 1208, 8-chloro-N-((6-(((1-methylpiperidin-4-yl)methyl)amino)pyridin-3-yl)methyl)isoquinolin-6-amine]: the IC50 was 3 to 10 µM in experiment [1] and more than 40 µM in experiment [2].

For `Nc1nccc2c(NCc3cnc(NCCC(=O)N4CCCC4)nc3)cccc12` [Example 1039, 3-[(5-{[(1-aminoisoquinolin-5-yl)amino]methyl}pyrimidin-2-yl)amino]-1-(pyrrolidin-1-yl)propan-1-one], the figures for the IC50 in experiment [1] and in experiment [2] were 10 to 40 µM and more than 40 µM, respectively.

As for `CC(C)N1CCC(CN(CCCO)C(=O)c2cccc(CNc3cccc4c(N)nccc34)c2)CC1` [Example 5441, 3-(((1-aminoisoquinolin-5-yl)amino)methyl)-N-(3-hydroxypropyl)-N-((1-isopropylpiperidin-4-yl)methyl)benzamide], the IC50 is 3 to 10 µM in experiment [1] and more than 40 µM in experiment [2].

In the case of `CC(C)(O)[C@@H]1CCN(c2ccc(CNc3cccc4c(N)nccc34)cn2)C1` [Example 1130, (R)-2-(1-(5-(((1-aminoisoquinolin-5-yl)amino)methyl)pyridin-2-yl)pyrrolidin-3-yl)propan-2-ol], the IC50 is 3 to 10 µM in experiment [1] and more than 40 µM in experiment [2].

`CN1CCC(CNc2ccc(CNc3ccc4c(N)ncc(Cl)c4c3)cn2)CC1` [Example 1193, 4-chloro-N6-((6-(((1-methylpiperidin-4-yl)methyl)amino)pyridin-3-yl)methyl)isoquinoline-1,6-diamine]: the IC50 in experiment [1] lay within 0.1 to 0.3 µM; in experiment [2], 3 to 10 µM.

`CNc1cc(NCc2ccc(NCC3CCN(C)CC3)nc2)ccn1` [Example 1219, N2-Methyl-N4-((6-(((1-methylpiperidin-4-yl)methyl)amino)pyridin-3-yl)methyl)pyridine-2,4-diamine]: the IC50 in experiment [1] is 3 to 10 µM; in experiment [2] it was more than 100 µM.

For `Nc1ncc(Cl)c2cc(NCc3ccnc(N4CCn5ccnc5C4)c3)ccc12` [Example 5437, 4-chloro-N6-((2-(5,6-dihydroimidazo[1,2-a]pyrazin-7(8H)-yl)pyridin-4-yl)methyl)isoquinoline-1,6-diamine], the values for the IC50 in experiment [1] and in experiment [2] were 10 to 40 µM and more than 40 µM, respectively.

Take `CC(C)(O)[C@H]1CCN(c2ccc(CNc3cccc4c(N)nccc34)cn2)C1` [Example 1131, 2-[(3S)-1-[5-[[(1-Amino-5-isoquinolyl)amino]methyl]-2-pyridyl]pyrrolidin-3-yl]propan-2-ol]: the IC50 in experiment [1] was 1 to 3 µM; in experiment [2], 10 to 40 µM.

On to `COc1ccc(NCc2ccnc(OCC3CCN(C)CC3)c2)c2ccnc(N)c12` [Example 4470, 8-methoxy-N5-((2-((1-methylpiperidin-4-yl)methoxy)pyridin-4-yl)methyl)isoquinoline-1,5-diamine], for which the values for the IC50 in experiment [1] and in experiment [2] were 10 to 40 µM and more than 40 µM, respectively.

In the case of `Nc1ncc(Cl)c2cc(NCc3ccc(N4CC5(CC(O)c6nccn65)C4)nc3)ccc12` (stereo not shown) [Example 1270, 1-(5-(((1-amino-4-chloroisoquinolin-6-yl)amino)methyl)pyridin-2-yl)-6′,7′-dihydrospiro[azetidine-3,5′-pyrrolo[1,2-a]imidazol]-7′-ol], the IC50 in experiment [1] is 10 to 40 µM; in experiment [2], more than 40 µM.

As to `CN1CCC(CNc2ccc(CNc3ccc4c(N)ncc(F)c4c3)cn2)CC1` [Example 1195, 4-fluoro-N6-((6-(((1-methylpiperidin-4-yl)methyl)amino)pyridin-3-yl)methyl)isoquinoline-1,6-diamine], the figures for the IC50 in experiment [1] and in experiment [2] were 0.1 to 0.3 µM and 3 to 10 µM, respectively.
